≈ marks a conversion by molar mass, not a printed value. One block for each compound: values may come before it.
Assays:
Staphylococcus aureus [1] = experiment: Antibacterial activity against Staphylococcus aureus assessed as diameter of inhibition zone by disc diffusion method; format: functional
Aspergillus ochraceus = experiment: Antifungal activity against Aspergillus ochraceus assessed as diameter of inhibition zone by disc diffusion method; format: functional
Penicillium chrysogenum = experiment: Antifungal activity against Penicillium chrysogenum assessed as diameter of inhibition zone by disc diffusion method; format: functional
Serratia marcescens = experiment: Antibacterial activity against Serratia marcescens assessed as diameter of inhibition zone by disc diffusion method; format: functional
Nakaseomyces glabratus = experiment: Antifungal activity against Candida glabrata MTCC 3019 assessed as inhibition of fungal growth incubated for 24 hrs by agar well diffusion method; format: functional
Micrococcus luteus [2] = experiment: Antibacterial activity against Micrococcus luteus MTCC 2470 assessed as minimum bactericidal concentration incubated for 24 hrs by broth microdilution method; format: functional
Staphylococcus aureus [3] = experiment: Antibiofilm activity against Staphylococcus aureus MTCC 96 assessed as inhibition of biofilm incubated for 24 hrs by crystal violet staining based spectrophotometry; format: functional, organism-based; conditions: MTCC 96, 24 h
Bacillus subtilis [4] = experiment: Antibacterial activity against Bacillus subtilis MTCC 121 assessed as minimum bactericidal concentration incubated for 24 hrs by broth microdilution method; format: functional
Bacillus subtilis [5] = experiment: Antibacterial activity against Bacillus subtilis MTCC 121 assessed as bacterial growth inhibition incubated for 24 hrs by broth microdilution method; format: functional
Pichia kudriavzevii = experiment: Antifungal activity against Candida krusei MTCC 3020 assessed as inhibition of fungal growth incubated for 24 hrs by agar well diffusion method; format: functional
Raoultella planticola [6] = experiment: Antibacterial activity against Raoultella planticola MTCC 530 assessed as bacterial growth inhibition incubated for 24 hrs by broth microdilution method; format: functional; conditions: Klebsiella planticola
Escherichia coli [7] = experiment: Antibiofilm activity against Escherichia coli MTCC 739 assessed as inhibition of biofilm incubated for 24 hrs by crystal violet staining based spectrophotometry; format: functional, organism-based; conditions: MTCC 739, 24 h
Escherichia coli [8] = experiment: Antibacterial activity against Escherichia coli MTCC 739 assessed as minimum bactericidal concentration incubated for 24 hrs by broth microdilution method; format: functional
Staphylococcus aureus [9] = experiment: Antibiofilm activity against Staphylococcus aureus MLS-16 MTCC 2940 assessed as inhibition of biofilm incubated for 24 hrs by crystal violet staining based spectrophotometry; format: functional, organism-based; conditions: MLS-16 MTCC 2940, 24 h
Escherichia coli [10] = experiment: Antibacterial activity against Escherichia coli MTCC 739 assessed as bacterial growth inhibition incubated for 24 hrs by broth microdilution method; format: functional
Candida parapsilosis = experiment: Antifungal activity against Candida parapsilosis MTCC 1744 assessed as inhibition of fungal growth incubated for 24 hrs by agar well diffusion method; format: functional; conditions: Lodderomyces parapsilosis
Staphylococcus aureus [11] = experiment: Antibacterial activity against Staphylococcus aureus MTCC 96 assessed as bacterial growth inhibition incubated for 24 hrs by broth microdilution method; format: functional
Micrococcus luteus [12] = experiment: Antibacterial activity against Micrococcus luteus MTCC 2470 assessed as bacterial growth inhibition incubated for 24 hrs by broth microdilution method; format: functional
Staphylococcus aureus [13] = experiment: Antibacterial activity against Staphylococcus aureus MTCC 96 assessed as minimum bactericidal concentration incubated for 24 hrs by broth microdilution method; format: functional
Candida albicans [14] = experiment: Antifungal activity against Candida albicans MTCC 227 assessed as inhibition of fungal growth incubated for 24 hrs by agar well diffusion method; format: functional
Raoultella planticola [15] = experiment: Antibiofilm activity against Raoultella planticola MTCC 530 assessed as inhibition of biofilm incubated for 24 hrs by crystal violet staining based spectrophotometry; format: functional, organism-based; conditions: Klebsiella planticola, MTCC 530, 24 h
Pichia sporocuriosa = experiment: Antifungal activity against Pichia sporocuriosa MTCC 4755 assessed as inhibition of fungal growth incubated for 24 hrs by agar well diffusion method; format: functional
Candida albicans [16] = experiment: Antifungal activity against Candida albicans MTCC 854 assessed as inhibition of fungal growth incubated for 24 hrs by agar well diffusion method; format: functional
Candida albicans [17] = experiment: Antifungal activity against Candida albicans MTCC 1637 assessed as inhibition of fungal growth incubated for 24 hrs by agar well diffusion method; format: functional
Micrococcus luteus [18] = experiment: Antibiofilm activity against Micrococcus luteus MTCC 2470 assessed as inhibition of biofilm incubated for 24 hrs by crystal violet staining based spectrophotometry; format: functional, organism-based; conditions: MTCC 2470, 24 h
Staphylococcus aureus [19] = experiment: Antibacterial activity against Staphylococcus aureus MLS-16 MTCC 2940 assessed as bacterial growth inhibition incubated for 24 hrs by broth microdilution method; format: functional
Staphylococcus aureus [20] = experiment: Antibacterial activity against Staphylococcus aureus MLS-16 MTCC 2940 assessed as minimum bactericidal concentration incubated for 24 hrs by broth microdilution method; format: functional
Raoultella planticola [21] = experiment: Antibacterial activity against Raoultella planticola MTCC 530 assessed as minimum bactericidal concentration incubated for 24 hrs by broth microdilution method; format: functional; conditions: Klebsiella planticola
Bacillus subtilis [22] = experiment: Antibiofilm activity against Bacillus subtilis MTCC 121 assessed as inhibition of biofilm incubated for 24 hrs by crystal violet staining based spectrophotometry; format: functional, organism-based; conditions: MTCC 121, 24 h
Candida albicans [23] = experiment: Antifungal activity against Candida albicans MTCC 183 assessed as inhibition of fungal growth incubated for 24 hrs by agar well diffusion method; format: functional
Escherichia coli [24] = experiment: Antibacterial activity against Escherichia coli ATCC 25922 assessed as diameter of inhibition zone at 50 mg/ml incubated for 24 hrs by paper disk diffusion method; format: functional; conditions: read-out: DIZ
Aspergillus fumigatus [25] = experiment: Antifungal activity against Aspergillus fumigatus ATCC204305 assessed as inhibition of […] growth incubated for 24 hrs by disk diffusion method; format: functional
Klebsiella pneumoniae = experiment: Antibacterial activity against Klebsiella pneumoniae MGH 78578 assessed as diameter of inhibition zone at 50 mg/ml incubated for 24 hrs by paper disk diffusion method; format: functional; conditions: read-out: DIZ
Aspergillus fumigatus [26] = experiment: microbe, parasite or virus in culture; format: functional; conditions: ATCC204305, dose 50 mg/ml, time 24 hrs, read-out: DIZ
Penicillium italicum = experiment: microbe, parasite or virus in culture; format: functional; conditions: CECT 2294, dose 50 mg/ml, time 24 hrs, read-out: DIZ
[27] = tested on: Staphylococcus epidermidis; experiment: Antibacterial activity against Staphylococcus epidermidis ATCC12228 assessed as inhibition of bacterial growth incubated for 24 hrs by disk diffusion method; format: functional
[28] = Inhibition of Escherichia coli topoisomerase 4 assessed as reduction in decatenation
DNA gyrase = DNA gyrase (Escherichia coli, UniProt P0AES4+P0AES6); experiment: Inhibition of Escherichia coli DNA gyrase; format: protein-complex assay
Human alphaherpesvirus 1 [29] = experiment: Antiviral activity against HSV-1 assessed as inhibition of viral replication at 40 ug; format: functional; design: scale not given: the % may be the effect or the level left; conditions: dose 40 µg
Human alphaherpesvirus 1 [30] = experiment: Antiviral activity against HSV-1 assessed as inhibition of viral replication at 20 ug; format: functional; design: scale not given: the % may be the effect or the level left; conditions: dose 20 µg
Bacillus cereus = experiment: Antibacterial activity against Bacillus cereus assessed as diameter of inhibition zone by disc diffusion method; format: functional
HA22T cell line = experiment: Anticancer activity against human HA22T cells assessed as cell growth inhibition incubated for 24 hrs; format: functional, cell-based
NUGC = experiment: Anticancer activity against human NUGC cells assessed as cell growth inhibition incubated for 24 hrs; format: functional, cell-based
MCF7 = experiment: Anticancer activity against human MCF7 cells assessed as cell growth inhibition incubated for 24 hrs; format: functional, cell-based; conditions: MCF7, 24 h
HepG2 = experiment: Anticancer activity against human HepG2 cells assessed as cell growth inhibition incubated for 24 hrs; format: functional, cell-based; conditions: HepG2, 24 h
DLD-1 = experiment: Anticancer activity against human DLD-1 cells assessed as cell growth inhibition incubated for 24 hrs; format: functional, cell-based; conditions: DLD-1, 24 h
HONE1 cell line = experiment: Anticancer activity against human HONE1 cell line assessed as cell growth inhibition incubated for 24 hrs; format: functional, cell-based; conditions: HONE1, 24 h

SMILES: N#CCc1nc2c3c(ncn2n1)Oc1ccc2cc(Br)ccc2c1C3
diameter of the inhibition zone (DIZ) (Staphylococcus aureus [1]): 25 mm
diameter of the inhibition zone (DIZ) (Aspergillus ochraceus): 17 mm
diameter of the inhibition zone (DIZ) (Penicillium chrysogenum): 13 mm
diameter of the inhibition zone (DIZ) (Serratia marcescens): 23 mm

SMILES: Cc1nc2c(c(=O)[nH]1)C(c1ccc([N+](=O)[O-])cc1)c1c(n[nH]c1C)O2 (stereo not given)
Activity (Human alphaherpesvirus 1 [29]): 95%
Activity (Human alphaherpesvirus 1 [30]): 63%

SMILES: CCOC(=O)c1nc2c3c(ncn2n1)Oc1ccc2cc(Br)ccc2c1C3
diameter of the inhibition zone (DIZ) (Bacillus cereus): 23 mm
diameter of the inhibition zone (DIZ) (Aspergillus ochraceus): 17 mm
diameter of the inhibition zone (DIZ) (Penicillium chrysogenum): 22 mm
diameter of the inhibition zone (DIZ) (Serratia marcescens): 24 mm

Now from value to compound, other results behind:

MIC (Nakaseomyces glabratus): 7.8 µg/mL (≈ 17.6 µM)
IC50 (Staphylococcus aureus [3]): 2500 nM
MIC (Bacillus subtilis [5]): 7.8 µg/mL (≈ 17.6 µM)
MIC (Pichia kudriavzevii): 7.8 µg/mL (≈ 17.6 µM)
IC50 (Escherichia coli [7]): 2500 nM
IC50 (Staphylococcus aureus [9]): 2500 nM
MIC (Escherichia coli [10]): 7.8 µg/mL (≈ 17.6 µM)
MIC (Candida parapsilosis): 7.8 µg/mL (≈ 17.6 µM)
MIC (Staphylococcus aureus [11]): 15.6 µg/mL (≈ 35.2 µM)
MIC (Micrococcus luteus [12]): 15.6 µg/mL (≈ 35.2 µM)
MIC (Candida albicans [14]): 7.8 µg/mL (≈ 17.6 µM)
MIC (Pichia sporocuriosa): 7.8 µg/mL (≈ 17.6 µM)
MIC (Candida albicans [16]): 7.8 µg/mL (≈ 17.6 µM)
MIC (Candida albicans [17]): 7.8 µg/mL (≈ 17.6 µM)
IC50 (Micrococcus luteus [18]): 2500 nM
MIC (Staphylococcus aureus [19]): 15.6 µg/mL (≈ 35.2 µM)
IC50 (Bacillus subtilis [22]): 2500 nM
MIC (Candida albicans [23]): 7.8 µg/mL (≈ 17.6 µM)
SMILES: COc1ccc(Nc2ncnc3c2C(c2ccc(OC)cc2)c2c(cc(C)oc2=O)O3)cc1 (stereo not given)
MBC (Micrococcus luteus [2]): 7.8 µg/mL (≈ 17.6 µM)
MBC (Bacillus subtilis [4]): 7.8 µg/mL (≈ 17.6 µM)
MIC (Raoultella planticola [6]): 7.8 µg/mL (≈ 17.6 µM)
MBC (Escherichia coli [8]): 7.8 µg/mL (≈ 17.6 µM)
MBC (Staphylococcus aureus [13]): 7.8 µg/mL (≈ 17.6 µM)
IC50 (Raoultella planticola [15]): 2500 nM
MBC (Staphylococcus aureus [20]): 7.8 µg/mL (≈ 17.6 µM)
MBC (Raoultella planticola [21]): 7.8 µg/mL (≈ 17.6 µM)

MIC (Aspergillus fumigatus [25]): 15.5 µg/mL (≈ 35.6 µM)
MIC [27]: 15.3 µg/mL (≈ 35.1 µM)
IC50 [28]: 341 nM
IC50 (DNA gyrase): 4.91 nM
SMILES: Nc1nc(=S)[nH]c2c1C(c1ccc(Cl)cc1)C=C(c1cc3ccccc3oc1=O)O2 (stereo not given)
zone of inhibition at 50000 µg/mL (Escherichia coli [24]): 10 mm
zone of inhibition at 50000 µg/mL (Klebsiella pneumoniae): 12 mm
zone of inhibition at 50000 µg/mL (Aspergillus fumigatus [26]): 10 mm
zone of inhibition at 50000 µg/mL (Penicillium italicum): 16 mm

IC50 (MCF7): 348 nM
IC50 (HepG2): 263 nM
IC50 (DLD-1): 606 nM
SMILES: N#CC1=C(N)C2C(=NC(NN)=NC2c2ccc(Cl)cc2)OC1=O (stereo not given)
IC50 (HA22T cell line): 282 nM
IC50 (NUGC): 328 nM
IC50 (HONE1 cell line): 201 nM

From ChEMBL document CHEMBL5241112, “Insights into the recent progress in the medicinal chemistry of pyranopyrimidine analogs” (RSC Med Chem, 2022)
